Reference: patent US5631226A, “Treatment to reduce edema” (The Regents of the University of California, priority 1995, dated 1997)
No end group written: not given here.

Tests used:
ACTH secretion = conditions: prior art report; cited from earlier work
blood pressure = conditions: prior art report; cited from earlier work
[1] = system: vascular leakage after musculature injury (celiotomy); experiment: Vascular leakage after celiotomy (4 cm midline incision through abdominal muscle wall); format: in vivo, rat; conditions: for Lesions Size: tissues 0.5 hour after surgery
Experimental: Experiments were conducted on male Sprague-Dawley rats 243±15 gm (S. D., Simonsen Labs., Gilroy, Calif.) anesthetized with sodium pentobarbital, 60 mg/kg i.p. Monastral blue, 60 mg/kg i.v., was injected 0.2 ml/100 g, 3 minutes before a 4 cm midline incision through the abdominal muscle wall (celiotomy). Saline or CRF was administered to randomized pairs with N=8 rats per group. The size of the lesion, measured as area in mm^2, and its light intensity, were quantified using the JAVA image-analysis software program. The light intensity, given in arbitrary units, was internally calibrated using Monastral blue solutions (1-30 mg/ml) placed on white filter paper. Values are mean±S.E.M. FIG. 2 illustrates the respective amount of vascular permeability for one pair of rats (control and treated). Tables III and IV set out data from these experiments.
CRF: inhected at various doses subcutaneously 30 minutes before a 4 cm
middle incision, tissues taken 0.5 hour after surgery.
CRF: 30 μg/kg s.c. injected 2 hour before a 4 cm midline incision,
tissues taken 0.5 hour after surgery

[2] = system: vascular leakage produced by PAF-acether; experiment: Vascular leakage produced by PAF-acether injected subcutaneously into the abdomen; format: in vivo, rat; conditions: CRF 30 μg/kg s.c. 30 minutes before PAF-acether
Experimental: CRF: 30 μg/kg s.c. injected 30 minutes before subcutaneous injection o
PAFacether (1 μg/0.1 ml/rat) into the abdomen; muscle removed 0.5 hour

Pseudomonas = experiment: Neutropenic rat model of sepsis (Pseudomonas infection), survival; format: in vivo; conditions: CRF 100 μg/kg i.v. twice a day for four days after onset of fever; day 11; 9/15; controls 100% mortality at 8 days
Text: The neutropenic rat model of sepsis, designed to mimic the systemic inflammatory response syndrome in humans, is described by Collins et al. from The Journal of Infectious Diseases, 159:6 (June 1989) and The Journal of Clinical Investigation, 88:885 (September 1991). […] The animals die from overwhelming infection within 7 to 9 days of infection and examination of the tissues with histological and pathological techniques reveal the characteristic organic manifestations of the systemic inflammatory response syndrome, namely, organ edema and tissue necrosis.
In a typical experiment, 10 rats serving as controls received saline and 15 rats received CRF at a dose of 100 μg/kg intravenously, given twice a day for four days after the onset of fever. At the end of 8 days, all of the animals in the control group were dead (100% mortality). By contrast, 60% (9/15) of the CRF group were still alive at day 11 when the experiment was concluded. The difference between the saline and CRF treated groups were statistically significant (P<0.002).

[3] = system: brain edema after freeze injury to cerebral cortex; experiment: Freeze injury of cerebral cortex, water and sodium content as index of brain edema; format: in vivo, rat; conditions: CRF 30 μg/kg s.c. 2x, tissues 3 hr after injury, ±S.E.M., N=5
Experimental: In a second set of experiments, the brain surface, namely the cerebral cortex, was injured by freezing and the water and sodium content were measured in the cerebral cortex and in the basal ganglia, a part of the brain away from the freeze zone. The water and sodium content of the brain tissue served as an index of brain edema. After freeze injury, the water and sodium content of the cerebral cortex were evaluated relative to non-frozen tissues. CRF administered in two separate doses of 30 μg/kg subcutaneously, one dose 15 minutes before the injury and the second dose 90 minutes after the first dose, inhibited the two indices of brain edema.
Male SpragueDawley rats, 300-325 g, anesthetized with
ketamineacepromazine, were injected saline or CRF (30 μg/kg s.c. 2x)
and injury to cerebral cortex was produced by applying a cold probe to th
skull for 1 min. Brain tissues were obtained 3 hr later and analyzed for
water and sodium content.

[4] = system: edema-producing properties of inflammatory mediators in rat pawskin; conditions: mediators injected into the rat pawskin; previously shown; cited from earlier work
[5] = system: vascular permeability produced by cold injury in brain; experiment: Cold (freeze) injury to brain, vascular leakage by Monastral blue staining; format: in vivo, rat
Text: An in vivo model of injury to study brain edema has been developed as a reproducible edema model, which has the features of immediate cortical damage followed by the subsequent development of brain edema. This model is described by Chan et al., Brain Research, 277, pp. 329-337 (1983). The model uses rats which are anesthetized. A 2.5 cm incision is made over the sagittal suture and the bone of the right hemisphere exposed. A 60 mm^2 plate attached to a brass cup filled with dry ice-acetone mixture, with a temperature of -50° C., is applied to the rat skull for one minute. The animals are sacrificed at various intervals after the onset of cold-injury. A dye is administered intravenously before the freezing. Cortical slices are then obtained of the brain.
Sixteen male rats were randomly divided into eight pairs and one rat in each pair received either saline or CRF (subcutaneously twice at 30 μg/kg, 30 min and 10 min before cold injury). The animals were anesthetized with sodium pentobarbital, 60 mg/kg intraperitoneally, and injected with Monastral blue, 60 mg/kg intravenously. A cold probe was applied onto the skull for four minutes and the brains taken out one hour after cold injury. The staining of brain tissues with Monastral blue, a colloidal pigment that gets trapped between the albuminal surface of the endothelial cell and the basement membrane, was proportional to the degree of vascular leakage. The results from the first pair are shown as FIG. 1.
The size of the lesion, measured as area in mm^2, and the degree of staining intensity, were quantified using an image-analysis software program called JAVA (Jandel Corporation, San Rafael, Calif.). The stain intensity, given in arbitrary units, was internally calibrated using Monastral blue solutions (1-30 mg/ml) placed on white filter paper. Values are mean ±S.E.M.

[6] = CRF 15 μg/kg s.c. 30 minutes before incision
[7] = CRF 30 μg/kg s.c. 30 minutes before incision
[8] = CRF 60 μg/kg s.c. 30 minutes before incision

Compound | effect on ACTH secretion (ACTH secretion) | effect on blood pressure (blood pressure) | lesion size relative to saline-treated group [1, 6] [%] | Lesions Size [1, 6] | lesion size relative to saline-treated group [1, 7] [%] | Lesions Size [1, 7] | lesion size relative to saline-treated group ([1]; CRF 30 μg/kg s.c. 2 hour before incision) [%] | lesion size relative to saline-treated group [1, 8] [%] | Lesions Size [1, 8] | muscle lesion size relative to saline-treated control group [2] [%] | animals still alive (survival) (Pseudomonas) [%] | SODIUM mEq/kg dry ([3]; basal ganglia (non-injured)) [mEq/kg dry] | WATER CONTENT % ([3]; basal ganglia (non-injured)) [%] | SODIUM mEq/kg dry ([3]; cerebral cortex (injured)) [mEq/kg dry] | WATER CONTENT % ([3]; cerebral cortex (injured)) [%] | effect on edema-producing properties of inflammatory mediators [4] | lesion size of CRF-treated group relative to saline-treated group ([5]; CRF 30 μg/kg s.c. twice before cold injury) [%] | Intensity (Monastral blue stain intensity) ([5]; CRF 30 μg/kg s.c. twice, 30 min and 10 min before cold injury, brains taken 1 hour after injury, mean ± S.E.M.) [arbitrary units] | blinded observer correctly assigns brains to saline or CRF group (more vs less damaged) ([5]; eight pairs of rats)
CC[C@H](C)[C@H](NC(=O)[C@@H](NC(=O)[C@H](CC(=O)O)NC(=O)[C@H](CC(C)C)NC(=O)[C@H](CC(C)C)NC(=O)[C@H](CC(C)C)NC(=O)[C@H](CCCNC(=N)N)NC(=O)[C@H](CC(N)=O)NC(=O)[C@H](CC(N)=O)NC(=O)[C@H](C)NC(=O)[C@H](C)NC(=O)[C@H](CCC(N)=O)NC(=O)[C@H](CCC(N)=O)NC(=O)[C@H](CCCCN)NC(=O)[C@H](CCC(=O)O)NC(=O)[C@H](CCCCN)NC(=O)[C@H](CCC(=O)O)NC(=O)[C@H](CCC(N)=O)NC(=O)[C@H](CCCCN)NC(=O)[C@H](CCC(=O)O)NC(=O)[C@@H](NC(=O)[C@H](CCC(=O)O)NC(=O)[C@@H](NC(=O)[C@H](CCSC)NC(=O)[C@H](CCCCN)NC(=O)[C@H](CCCNC(=N)N)NC(=O)[C@H](CC(C)C)NC(=O)[C@H](CC(C)C)NC(=O)[C@H](CCC(=O)O)NC(=O)[C@H](CC(C)C)NC(=O)[C@H](CO)NC(=O)[C@H](CC(C)C)NC(=O)[C@H](CC(=O)O)NC(=O)[C@@H](NC(=O)[C@H](CO)NC(=O)[C@@H](NC(=O)[C@@H]1CCCN1C(=O)[C@@H]1CCCN1C(=O)CNC(=O)[C@@H]1CCC(=O)N1)[C@@H](C)CC)[C@@H](C)CC)[C@@H](C)CC)[C@@H](C)CC)[C@@H](C)O)C(N)=O [Sauvagine] | stimulating the secretion of ACTH and β-endorphin | lowering blood pressure |  |  |  |  |  |  |  |  |  |  |  |  |  |  |  |  | 
CRF: 41 amino acid neuropeptide present in brain and peripheral nerve endings; stimulates ACTH release from pituitary cells (SEEPPISLDLTFHLLREVLEMARAEQLAQQAHSNRKLMEII; not fully specified; ends and bridges not checked; UniProt P06850 154-194, looked up) |  |  | 63 | 1031 ± 44 | 42 | 676 ± 47 | 59 | 29 | 468 ± 19 | 44 | 60 | 215 ± 9 | 76 ± 1 | 271 ± 8 | 77 ± 4 | antagonize the edema-producing properties | 44 | 2.0 ± 0.05 | 8 out of 8
